Data as given in patent US20190135834A1, “5-SUBSTITUTED AZABENZIMIDAZOLE DERIVATIVE HAVING ???? ACTIVATION ACTION” (Shionogi & Co., Ltd., priority 2016, published 2019).

Molecular target: T1, Human AMPK α2ß2γ1 (Homo sapiens, UniProt O43741+P54646)
T1 construct: The full length cDNAs of human AMPK ß2 (NM_005399.3) and human AMPK α2 (NM_006252.3); The full length cDNAs of human AMPK ß2 (NM_005399.3); 6xHis (N); made in house; host or cells: Escherichia coli BL21 CodonPlus (DE3)-RIL
Experiment: Test Example 2: evaluation of an activator for AMP-activated protein kinase (AMPK), LabChip mobility shift assay with CaMKK2-phosphorylated enzyme
Type: biochemical
Conditions: for EC150 (compound concentration showing 150% relative to the control (100%)): FL-Peptide 7 substrate, 25° C., 2 hours; for Emax: relative to control (100%), read-out: Emax (maximum rate of increase in activity within the measurement range)
In short: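 E. coli-expressed His-tagged human AMPK α2β2γ1 preactivated with GST-CaMKK2 (0.2 mM ATP, 25° C, 1–1.5 h), preincubated 10 min with compound (1% DMSO), then reacted 2 h at 25° C with 3 μM FL-Peptide 7 and 0.4 mM ATP in substrate solution, pH 7.0. Mobility-shift conversion rate gives % activity increase over no-compound control.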

T1 sequence (P54646 whole entry): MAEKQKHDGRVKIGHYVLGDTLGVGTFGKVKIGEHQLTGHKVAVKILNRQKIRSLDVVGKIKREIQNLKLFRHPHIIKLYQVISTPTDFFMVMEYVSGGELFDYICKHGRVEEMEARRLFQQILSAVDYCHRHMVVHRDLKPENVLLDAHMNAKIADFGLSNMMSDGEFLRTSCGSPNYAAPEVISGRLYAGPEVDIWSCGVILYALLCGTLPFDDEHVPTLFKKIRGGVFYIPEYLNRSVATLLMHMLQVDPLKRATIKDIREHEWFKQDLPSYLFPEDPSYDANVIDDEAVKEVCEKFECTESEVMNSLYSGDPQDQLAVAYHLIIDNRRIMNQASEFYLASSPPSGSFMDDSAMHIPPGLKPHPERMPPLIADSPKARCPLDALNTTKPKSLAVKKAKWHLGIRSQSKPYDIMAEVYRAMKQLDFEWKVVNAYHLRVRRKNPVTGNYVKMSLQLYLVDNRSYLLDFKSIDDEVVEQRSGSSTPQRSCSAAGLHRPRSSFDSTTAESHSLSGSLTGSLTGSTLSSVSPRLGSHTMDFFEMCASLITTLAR
T1 sequence (O43741 whole entry): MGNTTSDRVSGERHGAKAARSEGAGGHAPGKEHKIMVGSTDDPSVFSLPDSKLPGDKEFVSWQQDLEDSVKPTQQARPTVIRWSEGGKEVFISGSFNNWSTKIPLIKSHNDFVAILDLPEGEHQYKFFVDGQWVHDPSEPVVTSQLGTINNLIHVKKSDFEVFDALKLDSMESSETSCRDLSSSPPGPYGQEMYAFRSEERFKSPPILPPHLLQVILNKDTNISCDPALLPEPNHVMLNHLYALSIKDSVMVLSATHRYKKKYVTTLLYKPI
T1 sequence (P54619 whole entry partner): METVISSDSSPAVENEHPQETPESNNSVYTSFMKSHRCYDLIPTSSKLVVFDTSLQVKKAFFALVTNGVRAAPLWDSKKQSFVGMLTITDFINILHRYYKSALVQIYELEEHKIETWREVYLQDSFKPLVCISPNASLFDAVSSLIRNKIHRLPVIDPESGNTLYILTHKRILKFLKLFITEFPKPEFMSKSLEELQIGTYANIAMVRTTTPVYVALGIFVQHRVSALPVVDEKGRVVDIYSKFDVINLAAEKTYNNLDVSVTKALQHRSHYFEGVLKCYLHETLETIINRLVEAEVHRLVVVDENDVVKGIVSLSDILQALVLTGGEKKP

Row | Structure (SMILES) | EC150 (compound concentration showing 150% relative to the control (100%)) | Emax
1 | Cc1ncc(-c2cc(F)c3c(c2)CC[C@@H]3Nc2nc3nc(O[C@@H]4CO[C@H]5[C@@H]4OC[C@H]5O)[nH]c3cc2Cl)cn1 [Compound I-2-46] | 3.3 nM | 708%
2 | O[C@@H]1CO[C@H]2[C@@H]1OC[C@H]2Oc1nc2nc(N[C@H]3CCc4cc(C5=CCOC5)cc(F)c43)c(Cl)cc2[nH]1 [Compound I-2-47] | 2.3 nM | 724%
3 | CC(C)n1cc(-c2cc(F)c3c(c2)CC[C@@H]3Nc2nc3nc(O[C@@H]4CO[C@H]5[C@@H]4OC[C@H]5O)[nH]c3cc2Cl)ccc1=O [Compound I-2-48] | 6.2 nM | 737%
4 | O[C@@H]1CO[C@H]2[C@@H]1OC[C@H]2Oc1nc2nc(NC3CCc4cc(O[C@@H]5CCOC5)cc(F)c43)c(Cl)cc2[nH]1 (stereo partly drawn) [Compound I-2-49] | 3.4 nM | 667%
5 | O[C@@H]1CO[C@H]2[C@@H]1OC[C@H]2Oc1nc2nc(NC3CCc4cc(O[C@H]5CCOC5)cc(F)c43)c(Cl)cc2[nH]1 (stereo partly drawn) [Compound I-2-50] | 1.9 nM | 678%
6 | O[C@@H]1CO[C@H]2[C@@H]1OC[C@H]2Oc1nc2nc(NC3CCc4cc(OC5COC5)cc(F)c43)c(Cl)cc2[nH]1 (stereo partly drawn) [Compound I-2-51] | 4.7 nM | 688%
7 | COCCCOc1cc(F)c2c(c1)CCC2Nc1nc2nc(O[C@@H]3CO[C@H]4[C@@H]3OC[C@H]4O)[nH]c2cc1Cl (stereo partly drawn) [Compound I-2-52] | 3.7 nM | 629%
8 | O[C@@H]1CO[C@H]2[C@@H]1OC[C@H]2Oc1nc2nc(NC3CCc4cc(OCC5COC5)cc(F)c43)c(Cl)cc2[nH]1 (stereo partly drawn) [Compound I-2-53] | 4 nM | 637%
9 | CC1(COc2cc(F)c3c(c2)CCC3Nc2nc3nc(O[C@@H]4CO[C@H]5[C@@H]4OC[C@H]5O)[nH]c3cc2Cl)COC1 (stereo partly drawn) [Compound I-2-54] | 1.5 nM | 643%
10 | CS(=O)(=O)CCCOc1cc(F)c2c(c1)CCC2Nc1nc2nc(O[C@@H]3CO[C@H]4[C@@H]3OC[C@H]4O)[nH]c2cc1Cl (stereo partly drawn) [Compound I-2-55] | 3.6 nM | 637%
11 | COc1ncc(-c2cc(F)c3c(c2)CC[C@@H]3Nc2nc3nc(O[C@@H]4CO[C@H]5[C@@H]4OC[C@H]5O)[nH]c3cc2Cl)cn1 [Compound I-2-56] | 0.81 nM | 681%
12 | O[C@@H]1CO[C@H]2[C@@H]1OC[C@H]2Oc1nc2nc(N[C@H]3CCc4cc(-c5cnc(C6CC6)nc5)cc(F)c43)c(Cl)cc2[nH]1 [Compound I-2-57] | 11 nM | 636%
13 | O[C@@H]1CO[C@H]2[C@@H]1OC[C@H]2Oc1nc2nc(NC3CCc4cc(OCCOCC(F)F)cc(F)c43)c(Cl)cc2[nH]1 (stereo partly drawn) [Compound I-2-59] | 4.5 nM | 634%
14 | O[C@@H]1CO[C@H]2[C@@H]1OC[C@H]2Oc1nc2nc(NC3CCc4cc(OC5CC6(COC6)C5)cc(F)c43)c(Cl)cc2[nH]1 (stereo partly drawn) [Compound I-2-60] | 6.7 nM | 634%
15 | O[C@@H]1CO[C@H]2[C@@H]1OC[C@H]2Oc1nc2nc(N[C@H]3CCc4cc(-c5cncnc5)cc(F)c43)c(Cl)cc2[nH]1 [Compound I-2-61] | 3.1 nM | 649%
16 | CN(C)c1ncc(-c2cc(F)c3c(c2)CC[C@@H]3Nc2nc3nc(O[C@@H]4CO[C@H]5[C@@H]4OC[C@H]5O)[nH]c3cc2Cl)cn1 [Compound I-2-62] | 9.4 nM | 638%
17 | O=c1[nH]cc(-c2cc(F)c3c(c2)CC[C@@H]3Nc2nc3nc(O[C@@H]4CO[C@H]5[C@@H]4OC[C@H]5O)[nH]c3cc2Cl)cc1F [Compound I-2-63] | 3.9 nM | 653%
18 | O[C@@H]1CO[C@H]2[C@@H]1OC[C@H]2Oc1nc2nc(N[C@H]3CCc4cc(-c5cnc(C(F)(F)F)nc5)cc(F)c43)c(Cl)cc2[nH]1 [Compound I-2-64] | 9.3 nM | 676%
19 | Cc1ccc(-c2cc(F)c3c(c2)CC[C@@H]3Nc2nc3nc(O[C@@H]4CO[C@H]5[C@@H]4OC[C@H]5O)[nH]c3cc2Cl)cn1 [Compound I-2-66] | 8.6 nM | 711%
20 | O[C@@H]1CO[C@H]2[C@@H]1OC[C@H]2Oc1nc2nc(N[C@H]3CCc4cc(-c5ccc(C(F)(F)F)nc5)cc(F)c43)c(Cl)cc2[nH]1 [Compound I-2-67] | 29 nM | 683%
21 | Cn1cc(-c2cc(F)c3c(c2)CC[C@@H]3Nc2nc3nc(O[C@@H]4CO[C@H]5[C@@H]4OC[C@H]5O)[nH]c3cc2Cl)cc(F)c1=O [Compound I-2-68] | 1.8 nM | 600%
22 | CCc1ncc(-c2cc(F)c3c(c2)CC[C@@H]3Nc2nc3nc(O[C@@H]4CO[C@H]5[C@@H]4OC[C@H]5O)[nH]c3cc2Cl)cn1 [Compound I-2-69] | 3 nM | 598%
23 | Cn1ccc(-c2cc(F)c3c(c2)CC[C@@H]3Nc2nc3nc(O[C@@H]4CO[C@H]5[C@@H]4OC[C@H]5O)[nH]c3cc2Cl)n1 [Compound I-2-70] | 5.2 nM | 583%
24 | CCOc1ncc(-c2cc(F)c3c(c2)CC[C@@H]3Nc2nc3nc(O[C@@H]4CO[C@H]5[C@@H]4OC[C@H]5O)[nH]c3cc2Cl)cn1 [Compound I-2-71] | 8.6 nM | 590%
25 | O[C@@H]1CO[C@H]2[C@@H]1OC[C@H]2Oc1nc2nc(NC3CCc4cc(OCF)cc(F)c43)c(Cl)cc2[nH]1 (stereo partly drawn) [Compound I-2-72] | 1.8 nM | 592%
26 | CC(C)(O)Cn1cc(-c2cc(F)c3c(c2)CC[C@@H]3Nc2nc3nc(O[C@@H]4CO[C@H]5[C@@H]4OC[C@H]5O)[nH]c3cc2Cl)cn1 [Compound I-2-73] | 1.4 nM | 608%
27 | O[C@@H]1CO[C@H]2[C@@H]1OC[C@H]2Oc1nc2nc(N[C@H]3CCc4cc(-c5cnn(C6COC6)c5)cc(F)c43)c(Cl)cc2[nH]1 [Compound I-2-74] | 1.5 nM | 609%
28 | O[C@@H]1CO[C@H]2[C@@H]1OC[C@H]2Oc1nc2nc(NC3CCc4cc(OCC(F)F)cc(F)c43)c(Cl)cc2[nH]1 (stereo partly drawn) [Compound I-2-75] | 2.7 nM | 581%
29 | CC(C)(O)C#Cc1cc(F)c2c(c1)CC[C@@H]2Nc1nc2nc(O[C@@H]3CO[C@H]4[C@@H]3OC[C@H]4O)[nH]c2cc1Cl [Compound I-2-77] | 3.8 nM | 650%
30 | N#CCn1cc(-c2cc(F)c3c(c2)CC[C@@H]3Nc2nc3nc(O[C@@H]4CO[C@H]5[C@@H]4OC[C@H]5O)[nH]c3cc2Cl)cn1 [Compound I-2-78] | 2.5 nM | 692%
